Source: patent US12643871B2, “Aryl formamide compound containing chiral sulfur oxide or salt thereof, preparation method, herbicidal composition and use thereof” (Qingdao Kingagroot Chemical Compound Co., Ltd., priority 2019, dated 2026)

Key:
Assay in all cases: Weeding effect in post-emergence stage
Format in all cases: in vivo
Conditions in all cases: 250 g/ha; 2 leaf stage; 15 days after application; fresh weight control rate
Digitaria sanguinalis = tested on: Digitaria sanguinalis
Outline: (§1)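 Pot-grown weeds sprayed post-emergence at the 2-leaf stage, 2 weeks after sowing, with compound in acetone/Tween 80 plus 1.5 L/ha methyl oleate concentrate at 500–15 g/ha. Fresh-weight growth control scored after 15 days in greenhouse, mean of three replicates, graded levels 0–5 (5: >85%, 0: <5%).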

Echinochloa crusgali = tested on: Echinochloa crusgali
Outline: as §1

Amaranthus retroflexus = tested on: Amaranthus retroflexus
Outline: as §1

Setaria viridis = tested on: Setaria viridis
Outline: as §1

Abutilon theophrasti = tested on: Abutilon theophrasti
Outline: as §1

Compound: CCOC(=O)OC(C)N(C(=O)c1ccc(C(F)(F)F)c([S+]([O-])CC)c1OC)c1nnc(C)o1 (mixture of isomers) [Compound 422]
- weeding effect in post-emergence stage, activity level (growth control rate), Digitaria sanguinalis (Digitaria sanguinalis): 5 (Level 5: growth control rate is above 85%)
- weeding effect in post-emergence stage, activity level (growth control rate), Echinochloa crusgali (Echinochloa crusgali): 5 (Level 5: growth control rate is above 85%)
- weeding effect in post-emergence stage, activity level (growth control rate), Amaranthus retroflexus (Amaranthus retroflexus): 5 (Level 5: growth control rate is above 85%)
- weeding effect in post-emergence stage, activity level (growth control rate), Setaria viridis (Setaria viridis): 5 (Level 5: growth control rate is above 85%)
- weeding effect in post-emergence stage, activity level (growth control rate), Abutilon theophrasti (Abutilon theophrasti): 5 (Level 5: growth control rate is above 85%)

Compound: CCC(C)[S@@+]([O-])c1c(C(F)(F)F)ccc(C(=O)Nc2nnc(C)o2)c1F (stereo partly drawn) [Compound 5]
- weeding effect in post-emergence stage, activity level (growth control rate), Digitaria sanguinalis (Digitaria sanguinalis): 5 (Level 5: growth control rate is above 85%)
- weeding effect in post-emergence stage, activity level (growth control rate), Echinochloa crusgali (Echinochloa crusgali): 5 (Level 5: growth control rate is above 85%)
- weeding effect in post-emergence stage, activity level (growth control rate), Amaranthus retroflexus (Amaranthus retroflexus): 5 (Level 5: growth control rate is above 85%)
- weeding effect in post-emergence stage, activity level (growth control rate), Setaria viridis (Setaria viridis): 5 (Level 5: growth control rate is above 85%)
- weeding effect in post-emergence stage, activity level (growth control rate), Abutilon theophrasti (Abutilon theophrasti): 5 (Level 5: growth control rate is above 85%)

Compound: Cc1nnc(NC(=O)c2ccc(C(F)(F)F)c([S@+]([O-])C(C)(C)C)c2F)o1 [Compound 7]
- weeding effect in post-emergence stage, activity level (growth control rate), Digitaria sanguinalis (Digitaria sanguinalis): 4 (Level 4: growth control rate is greater than or equal to 60% and less than 85%)
- weeding effect in post-emergence stage, activity level (growth control rate), Echinochloa crusgali (Echinochloa crusgali): 5 (Level 5: growth control rate is above 85%)
- weeding effect in post-emergence stage, activity level (growth control rate), Amaranthus retroflexus (Amaranthus retroflexus): 5 (Level 5: growth control rate is above 85%)
- weeding effect in post-emergence stage, activity level (growth control rate), Setaria viridis (Setaria viridis): 4 (Level 4: growth control rate is greater than or equal to 60% and less than 85%)
- weeding effect in post-emergence stage, activity level (growth control rate), Abutilon theophrasti (Abutilon theophrasti): 5 (Level 5: growth control rate is above 85%)

Compound: Cc1nnc(NC(=O)c2ccc(C(F)(F)F)c([S@+]([O-])CCC(C)C)c2F)o1 [Compound 9]
- weeding effect in post-emergence stage, activity level (growth control rate), Digitaria sanguinalis (Digitaria sanguinalis): 5 (Level 5: growth control rate is above 85%)
- weeding effect in post-emergence stage, activity level (growth control rate), Echinochloa crusgali (Echinochloa crusgali): 5 (Level 5: growth control rate is above 85%)
- weeding effect in post-emergence stage, activity level (growth control rate), Amaranthus retroflexus (Amaranthus retroflexus): 5 (Level 5: growth control rate is above 85%)
- weeding effect in post-emergence stage, activity level (growth control rate), Setaria viridis (Setaria viridis): 5 (Level 5: growth control rate is above 85%)
- weeding effect in post-emergence stage, activity level (growth control rate), Abutilon theophrasti (Abutilon theophrasti): 5 (Level 5: growth control rate is above 85%)

Compound: CCC(C)C[S@@+]([O-])c1c(C(F)(F)F)ccc(C(=O)Nc2nnc(C)o2)c1F (stereo partly drawn) [Compound 10]
- weeding effect in post-emergence stage, activity level (growth control rate), Digitaria sanguinalis (Digitaria sanguinalis): 5 (Level 5: growth control rate is above 85%)
- weeding effect in post-emergence stage, activity level (growth control rate), Echinochloa crusgali (Echinochloa crusgali): 5 (Level 5: growth control rate is above 85%)
- weeding effect in post-emergence stage, activity level (growth control rate), Amaranthus retroflexus (Amaranthus retroflexus): 5 (Level 5: growth control rate is above 85%)
- weeding effect in post-emergence stage, activity level (growth control rate), Setaria viridis (Setaria viridis): 5 (Level 5: growth control rate is above 85%)
- weeding effect in post-emergence stage, activity level (growth control rate), Abutilon theophrasti (Abutilon theophrasti): 5 (Level 5: growth control rate is above 85%)

Compound: Cc1nnc(NC(=O)c2ccc(C(F)(F)F)c([S@+]([O-])CC(C)(C)C)c2F)o1 [Compound 11]
- weeding effect in post-emergence stage, activity level (growth control rate), Digitaria sanguinalis (Digitaria sanguinalis): 5 (Level 5: growth control rate is above 85%)
- weeding effect in post-emergence stage, activity level (growth control rate), Echinochloa crusgali (Echinochloa crusgali): 5 (Level 5: growth control rate is above 85%)
- weeding effect in post-emergence stage, activity level (growth control rate), Amaranthus retroflexus (Amaranthus retroflexus): 5 (Level 5: growth control rate is above 85%)
- weeding effect in post-emergence stage, activity level (growth control rate), Setaria viridis (Setaria viridis): 5 (Level 5: growth control rate is above 85%)
- weeding effect in post-emergence stage, activity level (growth control rate), Abutilon theophrasti (Abutilon theophrasti): 5 (Level 5: growth control rate is above 85%)
